# Reference: patent publication US11053218B2, “3-(1-oxoisoindolin-2-yl)piperidine-2,6-dione derivatives and uses thereof” (Novartis AG, priority 2017, dated 2021)
# Structures can show the parent of a compound that is named as a salt.
# How the values were obtained:
# IKZF2 = IKZF2 (Homo sapiens, UniProt Q96SW2+Q9UKS7); assay: Prolabel quantification of IKZF2 protein levels in 293GT cells; assay type: cell-based; details: for inhibition at 10 µM: 24 h, read-out: IKZF2 % protein reduction at 10 μM, 24 h; for inhibition at 10 µM / DC50: 293GT cells; for DC50: Prolabel assay, read-out: IKZF2 EC50; for IKZF2 protein levels as compared to the control (DMSO): Prolabel assay in HEK293GT cells, bar graph
# Chain of IKZF2 (Q9UKS7 whole entry): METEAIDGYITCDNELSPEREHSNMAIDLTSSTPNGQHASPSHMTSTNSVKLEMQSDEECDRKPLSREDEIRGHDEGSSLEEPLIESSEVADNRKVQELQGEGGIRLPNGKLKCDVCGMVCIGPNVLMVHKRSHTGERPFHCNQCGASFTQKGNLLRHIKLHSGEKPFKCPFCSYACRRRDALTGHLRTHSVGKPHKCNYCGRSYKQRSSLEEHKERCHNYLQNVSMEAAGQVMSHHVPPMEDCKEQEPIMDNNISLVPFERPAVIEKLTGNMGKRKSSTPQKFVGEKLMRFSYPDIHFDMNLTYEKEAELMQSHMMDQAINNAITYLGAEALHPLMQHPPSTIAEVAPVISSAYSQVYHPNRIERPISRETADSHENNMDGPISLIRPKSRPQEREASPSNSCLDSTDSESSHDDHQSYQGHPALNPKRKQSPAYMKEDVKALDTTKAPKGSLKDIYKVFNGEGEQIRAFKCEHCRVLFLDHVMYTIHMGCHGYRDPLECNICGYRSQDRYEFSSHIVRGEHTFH
# Chain of IKZF2 (Q96SW2 whole entry): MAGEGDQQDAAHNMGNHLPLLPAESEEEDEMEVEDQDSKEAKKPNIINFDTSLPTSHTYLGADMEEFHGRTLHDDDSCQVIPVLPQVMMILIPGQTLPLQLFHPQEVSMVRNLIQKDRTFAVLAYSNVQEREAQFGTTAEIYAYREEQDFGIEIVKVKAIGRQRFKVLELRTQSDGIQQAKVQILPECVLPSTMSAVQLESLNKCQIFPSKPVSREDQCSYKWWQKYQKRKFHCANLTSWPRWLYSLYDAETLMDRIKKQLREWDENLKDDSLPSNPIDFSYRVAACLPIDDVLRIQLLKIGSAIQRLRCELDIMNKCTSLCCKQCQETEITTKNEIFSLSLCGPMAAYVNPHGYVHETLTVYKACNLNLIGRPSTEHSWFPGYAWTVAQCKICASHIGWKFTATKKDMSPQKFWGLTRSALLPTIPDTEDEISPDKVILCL
# Chain of IKZF2 (Q16531 whole entry partner): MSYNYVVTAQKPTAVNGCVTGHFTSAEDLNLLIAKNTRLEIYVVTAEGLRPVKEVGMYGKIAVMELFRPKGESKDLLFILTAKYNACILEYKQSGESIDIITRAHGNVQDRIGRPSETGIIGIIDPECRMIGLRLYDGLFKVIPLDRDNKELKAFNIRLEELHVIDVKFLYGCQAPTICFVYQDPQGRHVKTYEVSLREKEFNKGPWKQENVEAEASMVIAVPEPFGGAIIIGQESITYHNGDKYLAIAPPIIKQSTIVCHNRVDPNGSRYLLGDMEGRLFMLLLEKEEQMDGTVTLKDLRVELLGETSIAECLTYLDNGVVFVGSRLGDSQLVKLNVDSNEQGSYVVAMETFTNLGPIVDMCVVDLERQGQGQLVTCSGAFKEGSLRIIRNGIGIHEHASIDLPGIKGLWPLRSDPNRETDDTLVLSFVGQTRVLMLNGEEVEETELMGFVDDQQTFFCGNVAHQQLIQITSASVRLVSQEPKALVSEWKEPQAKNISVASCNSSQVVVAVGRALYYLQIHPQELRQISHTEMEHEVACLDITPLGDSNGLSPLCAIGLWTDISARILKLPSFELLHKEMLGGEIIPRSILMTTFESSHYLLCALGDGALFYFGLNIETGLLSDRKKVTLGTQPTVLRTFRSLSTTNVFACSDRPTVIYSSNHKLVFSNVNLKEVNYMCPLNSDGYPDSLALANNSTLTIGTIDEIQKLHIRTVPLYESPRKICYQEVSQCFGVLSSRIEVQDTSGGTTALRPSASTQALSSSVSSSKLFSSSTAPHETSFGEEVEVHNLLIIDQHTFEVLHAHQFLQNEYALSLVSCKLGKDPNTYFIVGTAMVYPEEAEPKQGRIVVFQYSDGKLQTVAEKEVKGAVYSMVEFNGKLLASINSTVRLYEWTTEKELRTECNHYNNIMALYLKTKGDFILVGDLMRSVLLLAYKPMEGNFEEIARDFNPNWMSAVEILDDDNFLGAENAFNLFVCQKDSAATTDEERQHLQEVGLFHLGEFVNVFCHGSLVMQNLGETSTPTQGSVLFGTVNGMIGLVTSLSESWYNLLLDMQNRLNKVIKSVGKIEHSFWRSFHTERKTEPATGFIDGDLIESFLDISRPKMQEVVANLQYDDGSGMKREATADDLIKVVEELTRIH
# IKZF1 = IKZF1 (Homo sapiens, UniProt Q13422+Q96SW2); assay: Prolabel quantification of IKZF1 protein levels in 293GT cells; assay type: cell-based; details: Prolabel assay, read-out: IKZF1 EC50
# Chain of IKZF1 (Q13422 whole entry): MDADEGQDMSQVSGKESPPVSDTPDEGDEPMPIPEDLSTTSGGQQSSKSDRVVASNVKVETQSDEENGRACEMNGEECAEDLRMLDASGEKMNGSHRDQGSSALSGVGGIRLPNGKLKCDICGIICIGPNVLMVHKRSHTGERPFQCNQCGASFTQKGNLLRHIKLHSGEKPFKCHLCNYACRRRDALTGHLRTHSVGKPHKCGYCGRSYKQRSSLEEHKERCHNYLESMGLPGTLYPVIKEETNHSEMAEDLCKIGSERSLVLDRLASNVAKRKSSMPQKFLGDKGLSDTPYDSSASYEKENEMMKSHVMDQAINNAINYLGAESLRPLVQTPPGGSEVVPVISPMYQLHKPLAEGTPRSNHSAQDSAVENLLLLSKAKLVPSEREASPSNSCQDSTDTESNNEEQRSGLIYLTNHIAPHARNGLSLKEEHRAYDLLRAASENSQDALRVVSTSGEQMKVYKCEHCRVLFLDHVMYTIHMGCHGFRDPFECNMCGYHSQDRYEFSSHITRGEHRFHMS
# Chain of IKZF1 (Q96SW2 whole entry): as the sequence (Q96SW2 whole entry) above
# Chain of IKZF1 (Q16531 whole entry partner): as the sequence (Q16531 whole entry partner) above
Compound,inhibition at 10 µM (IKZF2) [%],DC50 (IKZF2) [nM],DC50 (IKZF1) [nM],IKZF2 protein levels as compared to the control (DMSO) (IKZF2)
"O=C1CCC(N2Cc3cc(C4CCN(C(c5ccccc5)C(F)F)CC4)ccc3C2=O)C(=O)N1 (centres unmarked) [Compound I-209, 3-(5-(1-(2,2-difluoro-1-phenylethyl)piperidin-4-yl)-1-oxoisoindolin-2-yl)piperidine-2,6-dione]",40,140,> 30000,
"O=C1CCC(N2Cc3cc(C4CCN(C(CF)c5ccccc5)CC4)ccc3C2=O)C(=O)N1 (centres unmarked) [Compound I-212, 3-(5-(1-(2-fluoro-1-phenylethyl)piperidin-4-yl)-1-oxoisoindolin-2-yl)piperidine-2,6-dione]",60,49,> 30000,
"O=C1CCC(N2Cc3cc(C4CCN(Cc5cc(C(F)(F)F)cc(C(F)(F)F)c5)CC4)ccc3C2=O)C(=O)N1 (centres unmarked) [Compound I-215, 3-(5-(1-(3,5-bis(trifluoromethyl)benzyl)piperidin-4-yl)-1-oxoisoindolin-2-yl)piperidine-2,6-dione]",50,19,> 30000,
"N#Cc1cccc(CN2CCC(c3ccc4c(c3)CN(C3CCC(=O)NC3=O)C4=O)CC2)n1 (centres unmarked) [Compound I-217, 6-((4-(2-(2,6-dioxopiperidin-3-yl)-1-oxoisoindolin-5-yl)piperidin-1-yl)methyl)picolinonitrile]",40,8,> 30000,
"N#CCOc1ccc(CN2CCC(c3ccc4c(c3)CN(C3CCC(=O)NC3=O)C4=O)CC2)cc1 (centres unmarked) [Compound I-218, 2-(4-((4-(2-(2,6-dioxopiperidin-3-yl)-1-oxoisoindolin-5-yl)piperidin-1-yl)methyl)phenoxy)acetonitrile]",60,4,> 30000,
"O=C1CCC(N2Cc3cc(C4CCN(Cc5ccc6[nH]ncc6c5)CC4)ccc3C2=O)C(=O)N1 (centres unmarked) [Compound I-219, 3-(5-(1-((1H-indazol-5-yl)methyl)piperidin-4-yl)-1-oxoisoindolin-2-yl)piperidine-2,6-dione]",80,11,> 25000,decreased
"Cc1ccc2nc(CN3CCC(c4ccc5c(c4)CN(C4CCC(=O)NC4=O)C5=O)CC3)cc(=O)n2c1 (centres unmarked) [Compound I-221, 3-(5-(1-((7-methyl-4-oxo-4H-pyrido[1,2-a]pyrimidin-2-yl)methyl)piperidin-4-yl)-1-oxoisoindolin-2-yl)piperidine-2,6-dione]",30,36,> 50000,
"O=C1CCC(N2Cc3cc(C4CCN(C(c5ccccc5)C(F)(F)F)CC4)ccc3C2=O)C(=O)N1 (centres unmarked) [Compound I-224, 3-(1-oxo-5-(1-(2,2,2-trifluoro-1-phenylethyl)piperidin-4-yl)isoindolin-2-yl)piperidine-2,6-dione HC(O)OH salt]",0,> 50000,> 50000,
"O=C1CCC(N2Cc3cc(C4CCN(Cc5nccc6ccccc56)CC4)ccc3C2=O)C(=O)N1 (centres unmarked) [Compound I-226, 3-(5-(1-(isoquinolin-1-ylmethyl)piperidin-4-yl)-1-oxoisoindolin-2-yl)piperidine-2,6-dione]",50,10,> 25000,
"COC1CCN(c2ccc(CN3CCC(c4ccc5c(c4)CN(C4CCC(=O)NC4=O)C5=O)CC3)cc2)CC1 (centres unmarked) [Compound I-227, 3-(5-(1-(4-(4-methoxypiperidin-1-yl)benzyl)piperidin-4-yl)-1-oxoisoindolin-2-yl)piperidine-2,6-dione]",60,4,> 30000,
"CC(C)Sc1ccc(CN2CCC(c3ccc4c(c3)CN(C3CCC(=O)NC3=O)C4=O)CC2)cc1 (centres unmarked) [Compound I-228, 3-(5-(1-(4-(isopropylthio)benzyl)piperidin-4-yl)-1-oxoisoindolin-2-yl)piperidine-2,6-dione]",70,10,> 30000,
"O=C(O)Cc1ccc(CN2CCC(c3ccc4c(c3)CN(C3CCC(=O)NC3=O)C4=O)CC2)cc1 (centres unmarked) [Compound I-231, 2-(4-((4-(2-(2,6-dioxopiperidin-3-yl)-1-oxoisoindolin-5-yl)piperidin-1-yl)methyl)phenyl)acetic acid]",60,250,> 30000,
"Nc1nc(C(F)(F)F)c(CN2CCC(c3ccc4c(c3)CN(C3CCC(=O)NC3=O)C4=O)CC2)s1 (centres unmarked) [Compound I-234, 3-(5-(1-((2-amino-4-(trifluoromethyl)thiazol-5-yl)methyl)piperidin-4-yl)-1-oxoisoindolin-2-yl)piperidine-2,6-dione]",50,120,> 30000,
"NC(=O)c1nc(CN2CCC(c3ccc4c(c3)CN(C3CCC(=O)NC3=O)C4=O)CC2)no1 (centres unmarked) [Compound I-235, 3-((4-(2-(2,6-dioxopiperidin-3-yl)-1-oxoisoindolin-5-yl)piperidin-1-yl)methyl)-1,2,4-oxadiazole-5-carboxamide]",40,2440,> 30000,
"O=C1CCC(N2Cc3cc(C4CCN(Cc5cccc(S(=O)(=O)N6CCOCC6)c5)CC4)ccc3C2=O)C(=O)N1 (centres unmarked) [Compound I-236, 3-(5-(1-(3-(morpholinosulfonyl)benzyl)piperidin-4-yl)-1-oxoisoindolin-2-yl)piperidine-2,6-dione]",80,3,> 25000,decreased
"O=C1CCC(N2Cc3cc(C4CCN(Cc5cscn5)CC4)ccc3C2=O)C(=O)N1 (centres unmarked) [Compound I-238, 3-(1-oxo-5-(1-(thiazol-4-ylmethyl)piperidin-4-yl)isoindolin-2-yl)piperidine-2,6-dione]",60,110,> 25000,
"CC(C)(C)c1ccc(C(=O)N2CCC(c3ccc4c(c3)CN(C3CCC(=O)NC3=O)C4=O)CC2)cc1 (centres unmarked) [Compound I-242, 3-(5-(1-(4-(tert-butyl)benzoyl)piperidin-4-yl)-1-oxoisoindolin-2-yl)piperidine-2,6-dione]",5,> 30000,> 30000,
"O=C1CCC(N2Cc3cc(C4CCN(Cc5ccc(OCc6ccc(F)cc6)cc5)CC4)ccc3C2=O)C(=O)N1 (centres unmarked) [Compound I-244, 3-(5-(1-(4-((4-fluorobenzyl)oxy)benzyl)piperidin-4-yl)-1-oxoisoindolin-2-yl)piperidine-2,6-dione]",75,91,> 30000,
"Cc1cc(CN2CCC(c3ccc4c(c3)CN(C3CCC(=O)NC3=O)C4=O)CC2)on1 (centres unmarked) [Compound I-245, 3-(5-(1-((3-methylisoxazol-5-yl)methyl)piperidin-4-yl)-1-oxoisoindolin-2-yl)piperidine-2,6-dione]",40,37,> 50000,
"O=C1CCC(N2Cc3cc(C4CCN(Cc5ccon5)CC4)ccc3C2=O)C(=O)N1 (centres unmarked) [Compound I-246, 3-(5-(1-(isoxazol-3-ylmethyl)piperidin-4-yl)-1-oxoisoindolin-2-yl)piperidine-2,6-dione]",40,12,> 50000,
"COCc1ccc(CN2CCC(c3ccc4c(c3)CN(C3CCC(=O)NC3=O)C4=O)CC2)cc1 (centres unmarked) [Compound I-248, 3-(5-(1-(4-(methoxymethyl)benzyl)piperidin-4-yl)-1-oxoisoindolin-2-yl)piperidine-2,6-dione]",70,16,> 30000,
"O=C1CCC(N2Cc3cc(C4CCN(Cc5ccc(S(=O)(=O)C(F)F)cc5)CC4)ccc3C2=O)C(=O)N1 (centres unmarked) [Compound I-252, 3-(5-(1-(4-((difluoromethyl)sulfonyl)benzyl)piperidin-4-yl)-1-oxoisoindolin-2-yl)piperidine-2,6-dione]",75,30,> 30000,
"COC(=O)c1coc(CN2CCC(c3ccc4c(c3)CN(C3CCC(=O)NC3=O)C4=O)CC2)n1 (centres unmarked) [Compound I-254, methyl 2-((4-(2-(2,6-dioxopiperidin-3-yl)-1-oxoisoindolin-5-yl)piperidin-1-yl)methyl)oxazole-4-carboxylate]",40,680,> 30000,
"O=C1CCC(N2Cc3cc(C4CCN(Cc5ccc(OCc6ccccn6)cc5)CC4)ccc3C2=O)C(=O)N1 (centres unmarked) [Compound I-255, 3-(1-oxo-5-(1-(4-(pyridin-2-ylmethoxy)benzyl)piperidin-4-yl)isoindolin-2-yl)piperidine-2,6-dione]",60,49,> 30000,
"O=C1CCC(N2Cc3cc(C4CCN(Cc5ccc6[nH]c(=O)[nH]c6c5)CC4)ccc3C2=O)C(=O)N1 (centres unmarked) [Compound I-259, 3-(1-oxo-5-(1-((2-oxo-2,3-dihydro-1H-benzo[d]imidazol-5-yl)methyl)piperidin-4-yl)isoindolin-2-yl)piperidine-2,6-dione]",60,1300,> 30000,
"O=C1CCC(N2Cc3cc(C4CCN(Cc5ccccc5)C4)ccc3C2=O)C(=O)N1 (centres unmarked) [Compound I-260, 3-(5-(1-benzylpyrrolidin-3-yl)-1-oxoisoindolin-2-yl)piperidine-2,6-dione HC(O)OH Salt]",20,> 30000,> 30000,
"O=C1CCC(N2Cc3cc(C4C[C@H]5CC[C@@H](C4)N5Cc4ccccc4)ccc3C2=O)C(=O)N1 (some centres unmarked) [Compound I-265, 3-(5-(8-benzyl-8-azabicyclo[3.2.1]octan-3-yl)-1-oxoisoindolin-2-yl)piperidine-2,6-dione HC(O)OH salt]",70,5,> 50000,
"O=C1CCC(N2Cc3cc(C4=CCCNC4)ccc3C2=O)C(=O)N1 (centres unmarked) [Compound I-282, 3-(1-oxo-5-(1,2,5,6-tetrahydropyridin-3-yl)isoindolin-2-yl)piperidine-2,6-dione]",0,> 30000,> 30000,
